One assay deals with BM derived MDSC. Kind of assay: OT-I proliferation assay with BM derived MDSC. Type of assay: cell-based, mouse. As to conditions: for MDSC suppressive activity on CFSE labelled OT-I proliferation: MDSC incubated 48 h with TLR agonist, in the absence of iNKT cells.
The next assay concerns iNKT cells. The assay is described as follows: IFN-γ and IL-4 release from iNKT cells incubated with treated MDSC. Type of assay: cell-based, mouse. As to conditions: WT MDSC treated with TLR agonist, iNKT cells incubated 48 h. Here is the method: (B) IFN-γ and IL-4 release from iNKT cells incubated for 48 h with CpG or Poly I:C treated MDSC, in the presence or absence of anti CD1d blocking antibody. Data represent the average of 3 replicates ±S.D and are representative of 3 separate experiments.
(A) iNKT cells derived from WT mice fail to produce IFN-γ when incubated with TLR-L matured MDSC derived from hexβ^−/− mice. Analysis of IFN-γ secretion by iNKT cells, derived from WT mice, co-incubated with TLR-L treated MDSC derived from either hexβ^−/− or iGb3S^−/− mice. To assess the role of CD1d molecules expressed on the surface of MDSC, TLR-L treated MDSC were also incubated with blocking […].
Isolation and culture of mouse MDSC. […]
Isolation of mouse iNKT cells. […] The % of iNKT cells was measured by CD1d/α-GalCer tetramer staining and ranged from ˜14% to ˜60%. […]
ELISA: 1) Cytokines. […] The amount of IL-12p40, IFN-γ and IL4 was measured using an ELISA kit (eBioscience). […] Sera from PR8 infected mice were collected 6 days post infection and antibody titers were determined by coating 96-well maxisorb NUNC plates with 5 ng/ml of PR8 virus overnight at 4° C. […] Color reactions were developed with 3,3′,5-5′-Tetramethylbenzidine (TMB) (Sigma-Aldrich) and the absorbance was measured at 490 nm.

For assay [1], the system named is human GM-CSF treated MDSC. Kind of assay: Mixed lymphocyte reaction with healthy donors' GM-CSF treated MDSC. In kind it is cell-based. As to conditions: for T cell proliferation in MLR with TLR-L treated MDSC: LPS 10 μg/ml, R848 5 μg/ml, Poly I:C 10 μg/ml, 24 h co-culture with added human iNKT cells, DC:MDSC 1:1.
For assay [2], the system named is lung derived MDSC (CD11b+ Gr-1+ cells) from PR8 infected mice. In kind it is cell-based, mouse.
Assay [3] has as its system CD11b+ cells from IAV infected individuals. Type of assay: cell-based, human. As to conditions: L-NMMA and NOHA added together to alloreactive PBL; data not shown.
The subject of assay [4] is EG7 cells (EL4 tumor cell line transfected with ovalbumin cDNA). On the set-up: species or system C57 BL/6 mice. The following applies: mouse, in vivo, iv.
For a further assay, the system named is CD11bCD15 positive cells. The assay is described as follows: Melan-A priming experiments with CD11bCD15 positive cells from melanoma patients. Type of assay: cell-based, human. As to conditions: CD11bCD15 positive cells pulsed with alphaGalCer 100 ng or Threitolceramide 200 ng. As for the experimental part: CD11bCD15 positive cells were pulsed with either alphaGalCer (100 ng) or Threitolceramide (200 ng) for 2 hours and then incubated with autologous iNKT cells overnight before adding autologous DC pulsed with Melan-A26-35 peptide and autologous CD11bCD15 cell depleted total leukocytes.
Experiments in FIG. 29 were carried out using the same conditions as shown in the right column of FIG. 28 (i.e. in the presence of iNKT cells and alphaGalCer pulsed CD11bCD15 positive cells) in the presence of either blocking anti CD1d (middle column) or blocking anti CD40 (right column) antibodies.
In order to assess whether secretion of IL-10 is contributing to the suppressive activity of CD11bCD15 positive cells, expansion of Melan-A26-35 specific T cell responses as assessed in the presence or absence of blocking anti 11-10 receptor antibodies. In the left hand panel of FIG. 31, expansion of Melan-A26-35 specific T cells was assessed using total leukocytes from which CD11b-CD15+ cells were removed (2.33%). Addition of CD11bCD15 positive cells reduced the frequency of Melan-A26-35 specific T cells (0.83%) (central panel).
Purification of CD11b/CD15+ cells. Since CD15 CD11b positive cells have granulocyte density, it is important to purify them without using density gradients, such as Ficol. Red blood cells are lysed from whole blood, using red lysis cell buffer and anti CD11b/CD15 specific antibodies are added to the leukocytes for FACS guided cell sorting.
Melan-A priming experiments. DCs were generated by culturing monocytes for 4 days in RPMI/10% FCS supplemented with 50 ng/ml GM-CSF (Pepro-tech) and 1,000 U/ml IL-4 (Salio, M., et al. 2007. Proc. Natl. Acad. Sci. U.S.A. 104:20490-20495). […] After 2 weeks, cells were stained with HLA-A2 tetramers loaded with melan-A26-35 peptide and anti CD8.
Harnessing iNKT cells. The protocol to purify Cdl lbCd15 cells and differentiate DC is similar to the protocol described earlier. Cdl lbCd15 cells were pulsed with either alphaGalCer (100 ng) or with threitolceramide (200 ng) and then incubated with iNKT cells for 12 hours. Cells were then washed pulsed with the melan-A26-35 peptide and incubated with total leukocytes. After 2 weeks in culture, cells were stained with HLA-A2 melan-A tetramers and anti-CD8 antibodies.

Regarding poly I:C, the “MDSC suppressive activity on CFSE labelled OT-I proliferation” value in the assay on BM derived MDSC is recorded as “partially relieved”. Further, the “activation of iNKT cells by treated MDSC (IFNγ and IL-4 secretion)” value with iNKT cells is “capable of activating iNKT cells”. Further, in assay [1], the “T cell proliferation in MLR with TLR-L treated MDSC” value was “rescues T cell proliferation”.

On to `CCOCc1nc2c(N)nc3ccccc3c2n1CC(C)(C)O` [R848], for which, in the assay with BM derived MDSC, the “MDSC suppressive activity on CFSE labelled OT-I proliferation” value is “partially relieved”. In addition, the “T cell proliferation in MLR with TLR-L treated MDSC” value in assay [1] is “rescues T cell proliferation”.

In the case of `CNC(=N)NCCC[C@H](N)C(=O)O` [L-NMMA, N^G-monomethyl-L-arginine], the “OT-I proliferation in the absence of MDSC” value in assay [2] (L-NMMA and NOHA added together to OT-I splenocytes, no MDSC, data not shown) is given as “did not affect OT-I proliferation”. In addition, the “suppressive activity of MDSC from PR8 infected mice on CFSE labelled OT-I proliferation” value in assay [2] ([…], L-NMMA and NOHA used together (500 μM)) is “is reduced”. For the same molecule, the “MLR suppressive activity of healthy donors GM-CSF treated MDSC” value in assay [1] (NOHA and L-NMMA added together) is listed as “can be blocked”. Moreover, the “PBL proliferation in MLR in the absence of MDSC” value in assay [1] (NOHA and L-NMMA added together, no MDSC, data not shown) is listed as “does not affect PBL proliferation”. For the same molecule, the “T cell proliferation in the absence of CD11b+ cells” value in assay [3] was “did not affect T cell proliferation”.

In the case of `CCCCCCCCCCCCCCCCCCCCCCCCCC(=O)N[C@@H](COC[C@H](O)[C@@H](O)CO)[C@H](O)[C@H](O)CCCCCCCCCCCCCC` [threitolceramide], in assay [4], the “frequency of MDSCs (CD11b+Gr1+ positive cells)” value is on record as “lower frequency”, the “frequency of Ova specific T cell responses (H-2Kb tetramer staining)” value is recorded as “higher frequency” and the “tumor size / tumor regression” value was “Tumour regression”. For the same molecule, the “frequency of Melan-A26-35 specific T cells” value in the assay on CD11bCD15 positive cells (in the absence of added iNKT cells, unpulsed 0.34%) was found to be 0.29%. The “frequency of Melan-A26-35 specific T cells” value in the assay on CD11bCD15 positive cells (with addition of autologous iNKT cells) came out at 2.87%.

Regarding `CCCCN1C[C@H](O)[C@@H](O)[C@@H](O)[C@H]1CO` [NB-DGJ, N-butyldeoxygalactonojirimycin], the “ability of iNKT cells to relieve the suppressive activity of MDSC (CFSE labelled OT-I proliferation)” value with BM derived MDSC (CpG and poly I:C treated MDSC, increasing concentrations of NB-DGJ, incubated with iNKT cells 24 h) is “reduced the ability of iNKT cells to relieve the suppressive activity of MDSC”. The “OT-I proliferation in absence of MDSC” value with BM derived MDSC (NB-DGJ added to OT-I splenocytes, no MDSC, data not shown) was “did not affect OT-I proliferation”.

These data come from patent publication US20110293658A1, “USE OF INKT OR TLR AGONISTS FOR PROTECTING AGAINST OR TREATING A DISEASE SUCH AS ACUTE INFECTION OR CANCER” (LUDWIG INSTITUTE FOR CANCER RESEARCH LTD., priority 2008, published 2011).
